# From PMC6801585, “Improved In Vivo Anti-Tumor and Anti-Metastatic Effect of GnRH-III-Daunorubicin Analogs on Colorectal and Breast Carcinoma Bearing Mice” (International Journal of Molecular Sciences, 2019)
# “And” between values parts separate entries of the source, which are not always exact repeats. Identical values can stand only once.
# Experiments:
# 4T1 = assay: In vitro anti-proliferative activity (MTT assay); format: cell-based; details: Mus musculus, 4T1 (mice breast), 24 h treatment + 48 h culture, average ± SD
# Experimental: (§1) In experimental procedures following cell lines were used, MDA-MB-231 and MCF-7 (human breast cancer), 4T1 (mice breast cancer), DU145 and PC-3 (human prostate cancer), A2780, OVCAR-3 and OVCAR-8 (human ovarian cancer), HepG2 (human liver cancer), A2058, WM983b, HT168-M1/9 and M24 (human melanoma), B16 (mice melanoma), H1975, H1650 and A549 (human lung cancer), HT-29 (human colorectal adenocarcinoma), C26 (mice colon cancer) and PANC-1 (pancreatic cancer) were cultured in RPMI 1640 Medium with glutamine (Roswell Park Memorial Institute Medium, Lonza, Basel, Switzerland). Moreover, U87MG (human malignant glioma) and MRC-5 (normal human fibroblast) were cultured in Dulbecco’s Modified Eagle’s Medium (DMEM, Lonza) and PE/CA-PJ15 and PE/CA-PJ41 (head and neck cancer) were cultured in Iscove’s Modified Dulbecco’s Medium (IMEM, Sigma Aldrich, St. Louis, MO, USA). Apart from the cell culture medium for OVCAR-3 cells, all media were supplemented with 10% heat-inactivated FBS (Fetal Bovine Serum, Euroclone, Milan, Italy) and 1% Penicillin/Streptomycin (Sigma Aldrich), while OVCAR-3 cells were cultured in 20% FBS containing RPMI medium. The cell lines were mainly obtained from ATCC, except for PE/CA-PJ15, PE/CA-PJ41 (ECACC), A2058 (kindly provided by L.A. Liotta, NCI, Bethesda, MD, USA), HT-168-M1/9 (derived from A2058), M24 (kind gift from B.M. Mueller, Scripps Research Institute, La Jolla, CA, USA) and WM983b (kindly provided by Meenhard Herlyn, Wistar Institute, Philadelphia, PA, USA). Cells were cultured in sterile T25 or T75 flasks with ventilation cap (Sarstedt, Nümbrecht, Germany) at 37 °C in a humidified atmosphere with 5% CO2.
# (§2) For the evaluation of the in vitro anti-proliferative activity of the GnRH-III conjugates and free Dau, the cell viability was determined by MTT assay (3-(4,5-dimethylthiazol-2-yl)-2,5-diphenyl-tetrazolium bromide) that was obtained from Sigma Aldrich. After standard harvesting of the cells by trypsin-EDTA (Lonza), 4 × 10^3 till 10 × 10^3 cells per well depending on cell line, were seeded in serum containing growth medium to 96-well plates (Sarstedt) and incubated. After 24 h, the growth medium was removed and cells were treated with various concentrations of conjugates 1 and 2 (32 nM–100 µM) or free Dau (0.1 nM–10 µM), dissolved in serum free medium and incubated for 24 h under standard conditions. The control wells were treated with serum free medium. After 24 h of treatment, the cells were washed twice with serum free medium and then cultured in serum containing medium for an additional 48 h. Afterward, the MTT assay was performed, in order to determine cell viability, by adding 20 µL of MTT solution (5 mg/mL in PBS) to each well and after 2 h of incubation at 37 °C, the supernatant was removed. The formazan crystals were dissolved in 100 µL of a 1:1 solution of DMSO (Sigma Aldrich):EtOH (Molar Chemicals Kft., Halásztelek, Hungary) and the absorbance was measured after 15 min. at λ = 570 nm by using a microplate reader (Bio-Rad, model 550, Hercules, CA, USA). The IC50 values of the conjugates and free drug were calculated while using GraphPad Prism 6 (GraphPad Software, San Diego, CA, USA). The experiments were done in triplicate and each experiment was repeated twice.
# A2058 = assay: In vitro anti-proliferative activity (MTT assay); format: cell-based; details: Homo sapiens, A2058 (melanoma), 24 h treatment + 48 h culture, average ± SD
# Experimental: as §1, §2
# A2780 = assay: In vitro anti-proliferative activity (MTT assay); format: cell-based; details: Homo sapiens, A2780 (ovarian), 24 h treatment + 48 h culture, average ± SD
# Experimental: as §1, §2
# A549 = assay: In vitro anti-proliferative activity (MTT assay); format: cell-based; details: Homo sapiens, A549 (lung), 24 h treatment + 48 h culture, average ± SD
# Experimental: as §1, §2
# B16 = assay: In vitro anti-proliferative activity (MTT assay); format: cell-based; details: Mus musculus, B16 (mice melanoma), 24 h treatment + 48 h culture, average ± SD
# Experimental: as §1, §2
# C26 = assay: In vitro anti-proliferative activity (MTT assay); format: cell-based; details: Mus musculus, C26 (mice colon), 24 h treatment + 48 h culture, average ± SD
# Experimental: as §1, §2
# DU145 = assay: In vitro anti-proliferative activity (MTT assay); format: cell-based; details: Homo sapiens, DU-145, DU145 (prostate), 24 h treatment + 48 h culture, average ± SD
# Experimental: as §1, §2
# H1650 = assay: In vitro anti-proliferative activity (MTT assay); format: cell-based; details: Homo sapiens, NCI-H1650, H1650 (lung), 24 h treatment + 48 h culture, average ± SD
# Experimental: as §1, §2
# H1975 = assay: In vitro anti-proliferative activity (MTT assay); format: cell-based; details: Homo sapiens, NCI-H1975, H1975 (lung), 24 h treatment + 48 h culture, average ± SD
# Experimental: as §1, §2
# HT-29 = assay: In vitro anti-proliferative activity (MTT assay); format: cell-based; details: Homo sapiens, HT-29 (colon), 24 h treatment + 48 h culture, average ± SD
# Experimental: as §1, §2
# HT168-M1/9 = assay: In vitro anti-proliferative activity (MTT assay); format: cell-based; details: Homo sapiens, HT168-M1/9 (melanoma), 24 h treatment + 48 h culture, average ± SD
# Experimental: as §1, §2
# HepG2 = assay: In vitro anti-proliferative activity (MTT assay); format: cell-based; details: Homo sapiens, HepG2 (liver), 24 h treatment + 48 h culture, average ± SD
# Experimental: as §1, §2
# M24 = assay: In vitro anti-proliferative activity (MTT assay); format: cell-based; details: Homo sapiens, M24 (melanoma), 24 h treatment + 48 h culture, average ± SD
# Experimental: as §1, §2
# MCF-7 = assay: In vitro anti-proliferative activity (MTT assay); format: cell-based; details: Homo sapiens, MCF7, MCF-7 (breast), 24 h treatment + 48 h culture, average ± SD
# Experimental: as §1, §2
# MDA-MB-231 = assay: In vitro anti-proliferative activity (MTT assay); format: cell-based; details: Homo sapiens, MDA-MB-231 (breast), 24 h treatment + 48 h culture, average ± SD
# Experimental: as §1, §2
# MRC-5 = assay: In vitro anti-proliferative activity (MTT assay); format: cell-based; details: Homo sapiens, MRC5, MRC-5 (normal fibroblast), 24 h treatment + 48 h culture, average ± SD
# Experimental: as §1, §2
# OVCAR-3 = assay: In vitro anti-proliferative activity (MTT assay); format: cell-based; details: Homo sapiens, OVCAR-3 (ovarian), 24 h treatment + 48 h culture, average ± SD
# Experimental: as §1, §2
# OVCAR-8 = assay: In vitro anti-proliferative activity (MTT assay); format: cell-based; details: Homo sapiens, OVCAR-8 (ovarian), 24 h treatment + 48 h culture, average ± SD
# Experimental: as §1, §2
# PANC-1 = assay: In vitro anti-proliferative activity (MTT assay); format: cell-based; details: Homo sapiens, PANC-1 (pancreas), 24 h treatment + 48 h culture, average ± SD
# Experimental: as §1, §2
# PC-3 = assay: In vitro anti-proliferative activity (MTT assay); format: cell-based; details: Homo sapiens, PC-3 (prostate), 24 h treatment + 48 h culture, average ± SD
# Experimental: as §1, §2
# PE/CA-PJ15 = assay: In vitro anti-proliferative activity (MTT assay); format: cell-based; details: PE/CA-PJ15 (head and neck), 24 h treatment + 48 h culture, average ± SD
# Experimental: as §1, §2
# PE/CA-PJ41 = assay: In vitro anti-proliferative activity (MTT assay); format: cell-based; details: PE/CA-PJ41 (head and neck), 24 h treatment + 48 h culture, average ± SD
# Experimental: as §1, §2
# U87MG = assay: In vitro anti-proliferative activity (MTT assay); format: cell-based; details: Homo sapiens, U-87 MG, U87MG (glioblastoma), 24 h treatment + 48 h culture, average ± SD
# Experimental: as §1, §2
# WM983b = assay: In vitro anti-proliferative activity (MTT assay); format: cell-based; details: Homo sapiens, WM983b (melanoma), 24 h treatment + 48 h culture, average ± SD
# Experimental: as §1, §2
# [1] = Chronic toxicity study on healthy mice; format: in vivo; details: healthy BALB/c female mice; i.p.; conjugates 15 mg/kg Dau content x5 (days 1,3,6,8,10); free Dau 1 mg/kg x2 (days 1,8); 14 days; 3 mice per group
# Experimental: Adult female inbred BALB/c mice from a specified pathogen free (SPF) breeding of the National Institute of Oncology (Budapest, Hungary), were used in acute and chronic toxicity studies and in orthotopic 4T1 mice breast tumor model experiment. The mice were kept in a sterile environment in Makrolon® cages at 22–24 °C (40–50% humidity), with a lighting regulation of 12/12 h light/dark. The animals had free access to tap water and were fed with a sterilized standard diet (VRF1, autoclavable, Akronom Kft., Budapest, Hungary) ad libitum.
# In order to determine the toxicity of the conjugates, in vivo acute and chronic toxicity studies were performed on healthy animals. In acute toxicity study, adult BALB/c female mice (20–23 g) were treated by a single intraperitoneal (i.p.) injection of conjugate 2, whereby different doses (3.125, 6.25, 12.5, 25 and 50 mg/kg Dau content) were administrated to each groups (three mice per group). In chronic toxicity studies, adult female BALB/c mice (23–26 g) were treated either with GnRH-III conjugates by i.p. administration with a dose of 15 mg/kg Dau content on day 1, 3, 6, 8 and 10, or with free Dau (1 mg/kg) on day 1 and 8. In case of the control group, sterile water was administered. Each group consisted of three mice. The toxicity was evaluated on the basis of life span, behavior and appearance of the mice, as well as the body weight. […]
# [2] = system: 4T1 mice breast carcinoma; assay: Orthotopic 4T1 mice breast tumor model; format: in vivo, BALB/c female mice
# Experimental: Adult BALB/c female mice (20–25 g) were used in this experiment and kept under the same conditions, as described above. 4T1 mice breast carcinoma cells, maintained as described above, were orthotopically injected into the lower quarter of the right mammary fat pad line of mice, whereby 1 × 10^6 cells were used per animal, suspended in 50 µL M199 medium (Sigma Aldrich). The treatment started seven days after cells inoculation, when the average tumor volume was 38 mm^3, by i.p. administration of the conjugates or free Dau. Four groups with seven animals per group were established and treated with certain doses and schedules. The mice in the control group were treated with sterile water, while mice in free Dau group were treated with a dose of 1 mg/kg, once per week, on days 7, 14 and 21 after cells inoculation. […] Animal weight and tumor volumes were measured initially when the treatment started and at periodic intervals according to the treatment schedule. A digital caliper was used to measure the longest (a) and the shortest diameter (b) of a given tumor. The tumor volume was calculated while using the formula V = ab^2 × π/6, whereby a and b represent the measured parameters (length and width). The termination of the experiment was initiated 28 days after cell inoculation, respectively 22 days after treatment start, since the average volume of the tumors in the control group reached 1800 mm^3. The mice from all groups were sacrificed by cervical dislocation. The anti-tumor effects and the liver toxicity of the conjugates and free Dau were evaluated based on the tumor volume and the liver weight/body weight ratio in each group. Moreover, the anti-proliferative and anti-metastatic activity of the conjugates and free Dau was evaluated in primary tumor and in metastases on the peripheral organs.
# The routinely formalin-fixed tumors were dehydrated in a graded series of ethanol, infiltrated with xylene and embedded into paraffin at a temperature not exceeding 60 °C. Two micron thick sections were mounted on Superfrost slides (Thermo Shandon, Runcorn, UK) and then manually deparaffinized. To block endogenous peroxidase activity, slides were treated for 20 min. at r.t. with 3% H2O2 in methanol. The slides were immersed in 6% citrate buffer (pH = 6) and exposed to 98 °C water bath for 40 min. […] After washing, secondary antibody Biotinylated Link (Dako) was applied for 10 min. at r.t. For visualization, supersensitive one step polymer HRP (Biogenex, Fremont, CA, USA) was used with 3-amino-9-ethylcarbazole (AEC) as chromogen. Staining without the primary antibody served as the negative control.
# Liver, spleen, lung and kidneys were harvested and fixed in formalin. All of the visible macro-metastatic lesions of the peripheral organs of seven animals from the control and treated groups on a stereo microscope Kruss MSZ5600 (Kruss Optronic, Hamburg, Germany) under 7–45-fold magnification were counted. The percentages of macro-metastatic lesions in the treated groups compared to the control group was calculated.
# Proliferation marker stained samples were evaluated on light microscope Olympus BH-2 microscope (Olympus, Tokyo, Japan). […] The proliferation index was calculated as percentage of KI-67 positive cells from all cells in the field of view.
# [3] = system: MDA-MB-231 human breast carcinoma; assay: Orthotopic MDA-MB-231 human breast tumor model; format: in vivo, SCID female mice
# Experimental: Adult SCID female mice (22–28 g) were used in this experiment and kept under the same conditions, as described above. […] The treatments started 21 days after cells inoculation, when average tumor volume was 40 mm^3. Free Dau and conjugates were administrated by i.p. injection. Four groups with seven animals per group were established and treated with certain doses and schedules. The mice in the control group were treated with sterile water, while the mice in the free Dau group were treated with a dose of 1 mg/kg, once per week, on day 21, 28, 35 and 42 after cell inoculation. […] The last treatment was performed on day 42 after cell inoculation, whereby a dose of 7.5 mg/kg Dau content was applied. The animal weights and tumor volumes were measured when the treatment was initiated and at periodic intervals according to the treatment schedule. The tumor volume was calculated in the same manner as described for mice breast carcinoma. […] The mice from all groups were sacrificed by cervical dislocation and primary tumors and livers were harvested and weighed, while number of animals with metastases were counted. The anti-tumor effects of the conjugates were evaluated measuring the tumor volume and the tumor weights, while the toxicity effects of conjugates were evaluated measuring liver weights and calculating the liver weight/body weight ratio.
# [4] = system: HT-29 human colon carcinoma; assay: Orthotopic HT-29 human colon tumor model; format: in vivo, SCID female mice
# Experimental: Immunodeficient, 6–8 weeks old SCID female mice (21–27 g) were used in this experiment. HT-29 colon carcinoma cells were subcutaneously injected into one side of the intrascapular region, whereby 2 × 10^6 cells were used per animal, suspended in 200 µL of M199 medium, in order to establish the xenografts with primary tumor. After two weeks, the mice with palpable tumors were sacrificed by cervical dislocation, disinfected with iodine and the subcutaneous tumor was aseptically dissected out.
# The abdomen of mice was disinfected with iodine and alcohol, a small midline incision (0.5 cm) was then made and the colorectal part of the intestine was exteriorized. Serosa of the site where the tumor pieces should be implanted were removed. Tumor tissue fragments of HT-29 human colon tumor were implanted on the top of the animal intestine, whereby an 8/0 surgical (polypropylene) suture was used to suture it on the wall of the intestine. The intestine was returned to the abdominal cavity and the abdominal wall was closed with 4/0 surgical (polyglycolic acid) sutures. The wound was disinfected with iodine and alcohol again and the animals were kept in a sterile environment.
# The treatments started seven days after tumor transplantation by i.p. administration of the free Dau and conjugates which were dissolved in sterile water for injection. Six mice per group were used. One group of mice was treated with free Dau at a dose of 1 mg/kg body weight on day 7, 13 and 20 after tumor transplantation. […] The control group was treated with sterile water. The experiment was terminated on day 30 after tumor transplantation (day 24 of treatment). […] The mice from all groups were sacrificed by cervical dislocation. Their tumors and livers were harvested and weighed.
# [5] = vs control, 1 and 2 10 mg/kg Dau content x6, free Dau 1 mg/kg x3, day 28, 7 animals
# [6] = SCID mice, i.p., 1 and 2 15 mg/kg Dau content x6 + 7.5 mg/kg x1, free Dau 1 mg/kg x4, day 45, 7 per group
# [7] = SCID mice, i.p., 1 and 2 10 mg/kg Dau content x7, end day 30, free Dau 1 mg/kg x3, end day 23, 6 per group
compound,measurement,setting,value
"COc1cccc2c1C(=O)c1c(O)c3c(c(O)c1C2=O)C[C@@](O)(C(C)=O)C[C@@H]3O[C@H]1C[C@H](N)[C@H](O)[C@H](C)O1 [Dau, daunorubicin]",IC50,4T1,56 ± 14.7 nM
same,IC50,A2058,35.1 ± 14.9 nM
same,IC50,A2780,10.4 ± 1.6 nM
same,IC50,A549,69.3 ± 23.5 nM
same,IC50,B16,26 ± 8 nM
same,IC50,C26,118 ± 8.6 nM
same,IC50,DU145,16.3 ± 4.6 nM
same,IC50,H1650,50.3 ± 13.4 nM
same,IC50,H1975,20.9 ± 2.7 nM
same,IC50,HT-29,202.9 ± 1 nM
same,IC50,HT168-M1/9,27.5 ± 9.1 nM
same,IC50,HepG2,22.9 ± 1.4 nM
same,IC50,M24,119 ± 25 nM
same,IC50,MCF-7,63.9 ± 21 nM
same,IC50,MDA-MB-231,54.6 ± 7.4 nM
same,IC50,MRC-5,288 ± 35.1 nM
same,IC50,OVCAR-3,404 ± 9.4 nM
same,IC50,OVCAR-8,186 ± 99.8 nM
same,IC50,PANC-1,526 ± 24.7 nM
same,IC50,PC-3,32.7 ± 4.7 nM
same,IC50,PE/CA-PJ15,50.5 ± 38.7 nM
same,IC50,PE/CA-PJ41,45.6 ± 33.5 nM
same,IC50,U87MG,126 ± 53.7 nM
same,IC50,WM983b,49.8 ± 22.9 nM
same,"Chronic toxicity: body weight, general looking and behavior",[1],could not observe a significant change in body weight
same,Decrease of liver/body weight ratio compared to control,"[2]; 1 and 2 10 mg/kg Dau content x6, free Dau 1 mg/kg x3, day 28",9.8%
same,Animal body weight at the end of experiment compared to the start,"[2]; BALB/c mice, i.p., 1 and 2 10 mg/kg Dau content x6, free Dau 1 mg/kg x3, day 28, 7 per group",slightly decreased
same,Inhibition of proliferation index of lung metastases,"[2]; KI-67, vs control, 1 and 2 10 mg/kg Dau content x6, free Dau 1 mg/kg x3",27.8% and 28%
same,Decrease of proliferation index in primary tumor compared to control,"[2]; KI-67 positive cells, 400x, 1 and 2 10 mg/kg Dau content x6, free Dau 1 mg/kg x3, day 28",19%
same,Inhibition of number of micro-metastases in the lung compared to control,"[2]; KI-67 stained, per field of view 100x, 1 and 2 10 mg/kg Dau content x6, free Dau 1 mg/kg x3",33.7% and 34%
same,Decrease of spleen weight compared to control,"[2]; day 28, 7 per group, Figure S2",27.2%
same,Decrease of number of macro-metastases in lung,[2]; [5],55.4%
same,Decrease of number of macro-metastases in spleen,[2]; [5],64.3%
same,Decrease of liver/body weight ratio compared to control,"[3]; 1 and 2 15 mg/kg Dau content x6 + 7.5 mg/kg x1, free Dau 1 mg/kg x4, day 45",16.8%
same,Decrease of body weight at the end of experiment compared to the beginning,[3]; [6],20%
same,Inhibition of tumor volume compared to control,[3]; [6],46.3% and 46%
same,Inhibition of tumor weight,[3]; [6],40.1%
same,Number of mice with metastases close to the primary tumor,"[3]; end of experiment day 45, control 5/5",four out of seven and 4/7 and 4/7 ^2
same,Decrease of liver/body weight ratio compared to control,"[4]; 1 and 2 10 mg/kg Dau content x7, day 30, free Dau 1 mg/kg x3, day 23",29.4%
same,Animal body weight at the end of experiment compared to the start,[4]; [7],significantly decreased
same,Reduction of tumor weight compared to control,[4]; [7],84.3% and 84%
